Experimental findings from patent US8962032B2, “Modulator” (The Queen's University of Belfast, priority 2009, dated 2015) are described below.

The test system of the assay is C57bl/6 bone marrow derived macrophages. Nature of the assay: LPS-induced TNFα and IL-6 in C57bl/6 BMDM with controls. It is filed as cell-based. The settings on record: C57bl/6 BMDM re-stimulated with 1 ng/ml LPS ± 25 μg/ml nanoparticles or controls. As for the experimental part: FIG. 9 illustrates reduction of TNFα and IL-6 production from C57bl/6 bone marrow derived macrophages (BMDM) incubated with LPS and α2,8 sialic acid conjugated PLGA nanoparticles. The BMDM were stimulated with 1 ng/ml LPS overnight to up-regulate Siglec-E. Cells were washed twice in serum-free DMEM prior to resting for 2 hr. Cells were re-stimulated with 1 ng/ml LPS±α2,8 sialic acid conjugated PLGA nanoparticles (NP) or appropriate controls—Unconjugated (nude) NP, Sialic acid washed, but unconjugated NP, Sialic acid at same concentration as NP or nanoparticles conjugated to the non-Siglec binding glucosamine. TNFα and IL-6 was measured by ELISA. One way ANOVA was used to determine significance.
4×10^4/well C57bl/6 bone marrow derived macrophages were stimulated with 1 ng/ml LPS overnight to up-regulate Siglec-E. Cells were washed twice in serum-free DMEM prior to resting for 2 hr. The results of cells re-stimulated with 1 ng/ml LPS±α2,8 sialic acid conjugated PLGA nanoparticles (NP) or appropriate controls—Unconjugated (nude) nanoparticles, Sialic acid washed—but unconjugated nanoparticles, Sialic acid at same concentration as nanoparticles or nanoparticles conjugated to the non-Siglec binding glucosamine are shown. TNFα and IL-6 was measured by ELISA. One way ANOVA with post-hoc Tukey test was used to determine significance. P=0.001.

Turning to “alpha 2-8 diacetylneuraminic acid [sialic acid]”, the “IL-6 (ELISA)” value was “insufficient to cause the effect observed” and the “TNFα (ELISA)” value is “insufficient to cause the effect observed”.
